Measured values: patent publication US20080153910A1, “LYSINE IN THERAPEUTIC ANGIOGENESIS FOR CARDIAC AND CEREBRAL/NEURAL REPERFUSION” (priority 2001, published 2008)
“Also recorded” adds a separate entry of the source.

Experiments:
adherent cellular growth = assay: Cellular expansion in culture (in-vitro); assay type: cell-based; details: compared to l-lysine; d-Lysine about 10 mcg/ml added load
Source text: Photo 12, cell culture photographs of d-Lysine (about 10 mcg/ml of added load, in addition to the usual load of I-Lysine, whatever was there in the media as the metabolic requirement) mediated cellular expansion in culture. […] In-situ controlled and physiological expansion of constituent cells in a wound bed, including the endothelial cells and their mediation of normal angiogenic process, mediate only by lysine/derivative(s), without addition/intervention of any other additive(s), whatsoever, is the essence of present invention.

angiogenesis = assay: Oligo-lysine and d-lysine induced cell expansion and angiogenesis in-vivo; details: compared to l-lysine
collagen synthesis = assay: 14C-Glycine incorporation in wound tissue; assay type: in vivo; details: experimental wound, 100% (w/w) topical, 0.25 to 100 mg/sq. in
Source text: As glycine is present at every third position in the primary sequence of Collagen, ^14C-Glycine incorporation in the wound tissue was supposed to give an idea of differential collagen synthesis in experimental and control wounds.

protein synthesis = assay: 35S-Methionine incorporation in acute surgical wound tissue; assay type: in vivo; details: 72 hrs post surgery, topical, vs control wound, HCl
acute surgical wounds = assay: Acute surgical wound model (full thickness skin incisions); assay type: in vivo, Rabbits
Protocol: Rabbits (about 1.5 Kg body wt.) from Haffkine Biopharmaceuticals, Mumbai, India were used for acute surgical wound model experimentations.
For acute surgical wound experiments, dorsal paravertebral skin was shaved in both the groups. Full thickness skin incisions (about 1 inch long) were made on either side of the vertebral column under local anaesthesia. In the experimental group, “lysine” in powder form(s) was instilled/spinkled/applied (about 10-15 mg) in each wound and the wounds were closed by single suture each to keep the edges apposed. No surface/systemic antibiotics were given to the animals dressed with “lysine”. Similar treatments were given to the control wounds except for omitting the “lysine” dressing altogether. Control wounds were protected with surface antibiotics ointment, applied at the time of each dressing. The wounds were covered with adhesive plasters in both the groups. Dressings were replaced every 48-72 hrs.
(§1) Tissue biopsies were taken from both groups—either animals or human beings—from appropriate wound site(s)/cardiac tissue (myocardium) at various time points post surgery/applications/dressings with the active ingredient(s), fixed at room temp. for 24 hrs. in formal saline (4% v/v). Tissue sections were stained with haematoxylin and eosin and observed under light microscope.
For examination of wound tissues under scanning electron microscope, skin tissues were taken (about 1.5 inch square) surgically under local anaesthesia in such a way that the original wound incision lied at the center of this piece of skin tissue, which was fixed in formal saline (4%) for 24 hrs at room temp. and pressure. Before mounting on to the observation stub with the help of a double faced adhesive tape, the wet tissues were dried adequately first with tissue papers and then at 37 degree Centrigrade incubator for about 2 hrs. Finally the dried tissues were cut with scissors in such a way that the cut line in each case was perpendicular to the original incision line. The finally prepared samples were gold coated in a hummer for around 4 minutes in vacuum and examined in a scanning electron microscope (Jeol).

chronic wounds = assay: Controlled open trial of lysine in chronic human wounds; assay type: in vivo
Source text: Chronic wounds of different anatomical locations as well as etiology were included in the controlled open trial of “lysine” for it's/their ability to induce angiogenesis and induction of the healthy granulation tissue formation in these chronic wounds. These included diabetic wounds and ulcers of various durations and severity, bed sores and pressure sores of various durations, infected wounds and cellulitic wounds of various origins, burns of different degrees and extents—both infected and otherwise, amputations, skingrafts, venous ulcers and even leprotic wounds and ulcers of long standing.
The wounds were debrided manually with gauge pieces soaked in normal saline to the point of bleeding of smaller vessels at the base of the wounds (wound-bed). Some of the chronic wounds were debrided surgically depending on the severity of the wound condition(s). Dressings were done with adequate amounts of the amino acid and/derivative(s) applied to the wound site(s) topically/locally. Wounds were closed with moistened gauge piece and adhesive tapes and the procedure repeated every 72-96 hrs. This approach constituted the experimental group subjects. In the control groups, conventional therapy were instituted both in terms of surgical/manual/enzymatic debridements as well as applying usual medications e.g. betadine, salutyl (a preparation which removes ischaemia by inducing angiogenesis in ischaemic wounds), trypsin, chymotrypsin, metronidazole preparations, silver sulfadiazine, regranex (a PDGF based healing agent containing “small” amount of the cationic amino acid lysine as “stabilizing agent”, along with quite a few other additives and ingredients), various surface antibiotics etc., depending on the clinical condition in question.
as §1

ischaemic myocardium = assay: Cardiac angiogenesis / coronary ischaemia model; assay type: in vivo, sheep
Protocol: For cardiac angiogenesis experiments, healthy immunized adult sheep, weighing 20-30 Kgs were selected. The selected animals underwent routine blood tests and echocardiography prior to surgery which acted as the base line data. Under general anaesthesia, 4 sheep were operated through a left thoracotomy. […] In one of the experimental animals, in addition to the intramuscular injection of lysine, about 10 ml of the saturated solution of lysine was injected at the root of the aorta through a pig-tail catheter passed retrogradely through the descending thoracic aorta. […] Post-operative echocardiogram were done in all the animals at 96 hrs post-surgery to assess the left ventricular wall motion. Two weeks post-surgery echocardiograms were done to assess left ventricular wall motion. The animals were sacrificed and autopsy of the hearts were done for examination of the degree of angiogenesis.
as §1, with “microscope. […]” for “microscope.”

hybridoma cell mass = details: compared to other physico-chemical means (Datta, D et al. 1997); cited from earlier work

NCCCC[C@@H](N)C(=O)O [d-Lysine]
cellular expansion / growth in-vitro (adherent cellular growth): equally effective
angiogenesis in-vivo (angiogenesis): equally effective
expansion of cells in-vivo (angiogenesis): equally effective

Cl.NCCCC[C@H](N)C(=O)O [L-lysine HCl]
14C-Glycine incorporation (collagen synthesis): Comparatively low incorporation
35S-Methionine incorporation (protein synthesis; listed as 100% (w/w) powder formulation): Significant difference
35S-Methionine incorporation (protein synthesis; listed as amino acid): Significantly more

NCCCC[C@H](N)C(=O)O [lysine, Lysine]
granulation tissue (scanning electron microscopy) (acute surgical wounds; acute surgical incision dressed with topically applied lysine, 72 hrs post surgery): spongy granulation tissue
dividing cells in-vivo (acute surgical wounds; acute surgical incision model, systemic application): stratified layers of dividing cells
histopathology: cellular thickening from basal keratinocyte layer (acute surgical wounds; rabbit, experimental vs control wound): extensive cellular thickening from the basal keratinocyte layer
granulation tissue (scanning electron microscopy) (acute surgical wounds; systemic lysine, i.p. injection, 5 ml, 5 mg/ml): spongy granulation tissue in the vicinity of the incision
in-situ tissue repair (chronic wounds; all types of acute and chronic wounds of both animal and human origin): excellent tissue regeneration in-situ
granulation tissue / angiogenic response (chronic wounds; bed sore, about two weeks of topical application): Extensive granulation tissue and profuse angiogenic response
time to skin graft (chronic wounds; cellulitic wound following 3rd degree burn): around two weeks
granulation/angiogenic tissue in wound bed (chronic wounds; cellulitic wound following 3rd degree burn, 11th day post initiation of therapy): extensive granulation/angiogenic tissue
granulation/angiogenesis (chronic wounds; cellulitic wound following 3rd degree burn, third day of topical therapy): reasonable granulation/angiogenesis
blood cell intravasation in the wound area (chronic wounds; chronic diabetic ulcer, around 11th day post initiation of therapy): extensive blood cell intravasation
glandular structures (histopathology) (chronic wounds; chronic diabetic ulcer, topical): healthy glandular structures
angiogenic response (histopathology) (chronic wounds; chronic human wounds, topical): profuse angiogenic response; also recorded: Extensive angiogenic response
time to skin graft (clinical end point) (chronic wounds; chronic stump wound): around two weeks
granulation (chronic wounds; chronic stump wound, within two weeks of topical therapy): extensive granulation
Keratinocyte layer thickening (histopathology) (chronic wounds; experimental wounds of human origin): very advanced degree of Keratinocyte layer thickening
time to ready for skin graft (chronic wounds; infected third degree burn, post institution of therapy): 13 days
induction of granulation tissue/angiogenesis (chronic wounds; infected third degree burn, within around two weeks): remarkable induction of granulation tissue/angiogenesis
granulation/angiogenesis (chronic wounds; leprotic wound (about 3 yr old), topical): very good granulation/angiogenesi-s
reduction in size (chronic wounds; leprotic wound, about 12 weeks topical treatment): about 60%
time to initiation of repair-by-in-situ-regeneration (chronic wounds; topical and/or systemic therapy): 72 to 96 h
time to first appearance of healthy granulation tissue (chronic wounds; wounds of different locations, origins and durations): 72 to 96 h
echocardiography: movement of myocardium in ischaemic zones (ischaemic myocardium; 96 hrs post surgery): definite non-asynchronous movement of the myocardium
hierarchical nature of the angiogenic response (ischaemic myocardium; 21 days post surgery): capillaries filled with blood cells
angiogenic response in ischaemic cardiac muscle tissue (ischaemic myocardium; 21 days post surgery, vs control): extensive angiogenic response
histopathology: angiogenic response (ischaemic myocardium; around two-weeks, vs control): advanced degree of matured angiogenic response
expansion of biomass (cell population) (hybridoma cell mass): expand the biomass (cell population) at the least possible time
